These results are taken from patent publication US10100058B2, “Fused heterocyclic compounds as CaM kinase inhibitors” (Gilead Sciences, Inc., priority 2016, dated 2018).

SMILES strings stand for the structures.

As usually defined, the IC50 is the point on the concentration scale where inhibition reaches its midpoint.

The experiment addresses recombinant CaMKIIδ (Homo sapiens (Human), UniProt Q13557). Kind of experiment: CaMKIIδ biochemical assay (HTRF). The note with it: 10 pM CaMKIIδ, 110 nM calmodulin, 12 μM ATP, 1 hour; read-out: CAMKIID-HTRF-384V2 (IC50 - nM). Here is the method:
CaMKIIδ Biochemical Assay
The biochemical activity of recombinant CaMKIIδ was measured by monitoring the phosphorylation of a target peptide using Homogenous Time Resolved Fluorescence (HTRF) technology from CisBio Bioassays.
Background: Time-resolved FRET reads energy transfer from a long-lived donor to a nearby acceptor.
In the case of `CCN(CC)[C@@H](C)CNC(=O)c1cc(-c2cnn3ccc(-c4cccs4)nc23)nc(N2CC(NC(=O)c3ncco3)C2)c1` [Example 194, (S)—N-(1-(4-((2-(diethylamino)propyl)carbamoyl)-6-(5-(thiophen-2-yl)pyrazolo[1,5-a]pyrimidin-3-yl)pyridin-2-yl)azetidin-3-yl)oxazole-2-carboxamide], the IC50 stood at 0.19 nM. Then `CCN(CC)[C@@H](C)CNC(=O)c1cc(-c2cnn3ccc(-c4cccs4)nc23)nc(N2CC(NC(=O)N(C)C)C2)c1` [Example 195, (S)—N-(2-(diethylamino)propyl)-2-(3-(3,3-dimethylureido)azetidin-1-yl)-6-(5-(thiophen-2-yl)pyrazolo[1,5-a]pyrimidin-3-yl)isonicotinamide], with 0.28 nM; and `CCN(CC)[C@@H](C)CNC(=O)c1cc(-c2cnn3ccc(-c4cccs4)nc23)nc(N2CC(NC(=O)C3CC3)C2)c1` [Example 196, (S)-2-(3-(cyclopropanecarboxamido)azetidin-1-yl)-N-(2-(diethylamino)propyl)-6-(5-(thiophen-2-yl)pyrazolo[1,5-a]pyrimidin-3-yl)isonicotinamide], with 0.22 nM; and `CCN(CC)[C@@H](C)CNC(=O)c1cc(-c2cnn3ccc(-c4cccs4)nc23)nc(N2CC(NS(C)(=O)=O)C2)c1` [Example 197, (S)—N-(2-(diethylamino)propyl)-2-(3-(methylsulfonamido)azetidin-1-yl)-6-(5-(thiophen-2-yl)pyrazolo[1,5-a]pyrimidin-3-yl)isonicotinamide], with 0.09 nM. Next, `CCN(CC)[C@@H](C)CNC(=O)c1cc(-c2cnn3ccc(-c4cccs4)nc23)nc(N2CC(NC(C)=O)C2)c1` [Example 198, (S)-2-(3-acetamidoazetidin-1-yl)-N-(2-(diethylamino)propyl)-6-(5-(thiophen-2-yl)pyrazolo[1,5-a]pyrimidin-3-yl)isonicotinamide]: 0.15 nM.

As for `CCN(CC)[C@@H](C)CNC(=O)c1cc(N[C@H](C)CO)nc(-c2cnn3ccc(-c4cccs4)nc23)c1` [Example 199, N—((S)-2-(diethylamino)propyl)-2-(((R)-1-hydroxypropan-2-yl)amino)-6-(5-(thiophen-2-yl)pyrazolo[1,5-a]pyrimidin-3-yl)isonicotinamide], the concentration for half-maximal inhibition (IC50) turned out to be 0.32 nM. `CCN(CC)[C@@H](C)CNC(=O)c1cc(N[C@@H](C)CO)nc(-c2cnn3ccc(-c4cccs4)nc23)c1` [Example 200, N—((S)-2-(diethylamino)propyl)-2-(((S)-1-hydroxypropan-2-yl)amino)-6-(5-(thiophen-2-yl)pyrazolo[1,5-a]pyrimidin-3-yl)isonicotinamide]: the IC50 was found to be 0.16 nM. As to `CCN(CC)[C@@H](C)CNC(=O)c1cc(NC[C@H](C)O)nc(-c2cnn3ccc(-c4cccs4)nc23)c1` [Example 201, N—((S)-2-(diethylamino)propyl)-2-(((S)-2-hydroxypropyl)amino)-6-(5-(thiophen-2-yl)pyrazolo[1,5-a]pyrimidin-3-yl)isonicotinamide], the IC50 came to 0.11 nM. In the case of `CCN(CC)[C@@H](C)CNC(=O)c1cc(NC[C@@H](C)O)nc(-c2cnn3ccc(-c4cccs4)nc23)c1` [Example 202, N—((S)-2-(diethylamino)propyl)-2-(((R)-2-hydroxypropyl)amino)-6-(5-(thiophen-2-yl)pyrazolo[1,5-a]pyrimidin-3-yl)isonicotinamide], the IC50 came to 0.14 nM.

Take `CCN(CC)[C@@H](C)CNC(=O)c1cc(N[C@H]2CCOC2)nc(-c2cnn3ccc(-c4cccs4)nc23)c1` [Example 203, N—((S)-2-(diethylamino)propyl)-2-(((S)-tetrahydrofuran-3-yl)amino)-6-(5-(thiophen-2-yl)pyrazolo[1,5-a]pyrimidin-3-yl)isonicotinamide]: the IC50 was found to be 0.18 nM. Next, `CCN(CC)[C@@H](C)CNC(=O)c1cc(-c2cnn3ccc(-c4cccs4)nc23)nc(N2CCN(C(C)=O)CC2)c1` [Example 204, (S)-2-(4-acetylpiperazin-1-yl)-N-(2-(diethylamino)propyl)-6-(5-(thiophen-2-yl)pyrazolo[1,5-a]pyrimidin-3-yl)isonicotinamide]: 0.28 nM; `CCN(CC)[C@@H](C)CNC(=O)c1cc(-c2cnn3ccc(-c4cccs4)nc23)nc(N2CC(NC)C2)c1` [Example 205, (S)—N-(2-(diethylamino)propyl)-2-(3-(methylamino)azetidin-1-yl)-6-(5-(thiophen-2-yl)pyrazolo[1,5-a]pyrimidin-3-yl)isonicotinamide]: 0.1 nM; `CCN(CC)[C@@H](C)CNC(=O)c1cc(-c2cnn3ccc(-c4cccs4)nc23)nc(N2CC(N(C)C)C2)c1` [Example 206, (S)—N-(2-(diethylamino)propyl)-2-(3-(dimethylamino)azetidin-1-yl)-6-(5-(thiophen-2-yl)pyrazolo[1,5-a]pyrimidin-3-yl)isonicotinamide]: 0.1 nM. Next, `CCN(CC)[C@@H](C)CNC(=O)c1cc(-c2cnn3ccc(-c4cccs4)nc23)nc(N2CCNCC2)c1` [Example 207, (S)—N-(2-(diethylamino)propyl)-2-(piperazin-1-yl)-6-(5-(thiophen-2-yl)pyrazolo[1,5-a]pyrimidin-3-yl)isonicotinamide]: 0.21 nM.

Turning to `CCN(CC)[C@@H](C)CNC(=O)c1cc(-c2cnn3ccc(-c4cccs4)nc23)nc(N2CC(C(N)=O)C2)c1` [Example 208, (S)-2-(3-carbamoylazetidin-1-yl)-N-(2-(diethylamino)propyl)-6-(5-(thiophen-2-yl)pyrazolo[1,5-a]pyrimidin-3-yl)isonicotinamide], the IC50 came to 0.07 nM. On to `CCN(CC)[C@@H](C)CNC(=O)c1cc(-c2cnn3ccc(-c4cccs4)nc23)nc(N2CC[C@H](OC)C2)c1` [Example 209, N—((S)-2-(diethylamino)propyl)-2-((S)-3-methoxypyrrolidin-1-yl)-6-(5-(thiophen-2-yl)pyrazolo[1,5-a]pyrimidin-3-yl)isonicotinamide], for which the IC50 came to 0.17 nM. `CCN(CC)[C@@H](C)CNC(=O)c1cc(-c2cnn3ccc(-c4cccs4)nc23)nc(N2CC(Oc3ccc(F)cc3)C2)c1` [Example 210, (S)—N-(2-(diethylamino)propyl)-2-(3-(4-fluorophenoxy)azetidin-1-yl)-6-(5-(thiophen-2-yl)pyrazolo[1,5-a]pyrimidin-3-yl)isonicotinamide]: the IC50 turned out to be 18.2 nM. Consider `CCN(CC)[C@@H](C)CNC(=O)c1cc(NCc2cc[nH]n2)nc(-c2cnn3ccc(-c4cccs4)nc23)c1` [Example 212, (S)-2-(((1H-pyrazol-3-yl)methyl)amino)-N-(2-(diethylamino)propyl)-6-(5-(thiophen-2-yl)pyrazolo[1,5-a]pyrimidin-3-yl)isonicotinamide], for which the IC50 stood at 0.3 nM. In the case of `CCN(CC)[C@@H](C)CNC(=O)c1cc(NC2CC2)nc(-c2cnn3ccc(-c4cccs4)nc23)c1` [Example 213, (S)-2-(cyclopropylamino)-N-(2-(diethylamino)propyl)-6-(5-(thiophen-2-yl)pyrazolo[1,5-a]pyrimidin-3-yl)isonicotinamide], the IC50 was found to be 0.18 nM. On to `CCN(CC)[C@@H](C)CNC(=O)c1cc(-c2cnn3ccc(-c4cccs4)nc23)nc(N2CC(O)(CC)C2)c1` [Example 214, (S)—N-(2-(diethylamino)propyl)-2-(3-ethyl-3-hydroxyazetidin-1-yl)-6-(5-(thiophen-2-yl)pyrazolo[1,5-a]pyrimidin-3-yl)isonicotinamide], for which the IC50 amounted to 0.18 nM. With `CCN(CC)[C@@H](C)CNC(=O)c1cc(-c2cnn3ccc(-c4cccs4)nc23)nc(N2CC(C(C)(C)O)C2)c1` [Example 215, (S)—N-(2-(diethylamino)propyl)-2-(3-(2-hydroxypropan-2-yl)azetidin-1-yl)-6-(5-(thiophen-2-yl)pyrazolo[1,5-a]pyrimidin-3-yl)isonicotinamide], the IC50 turned out to be 0.22 nM. As for `CCN(CC)[C@@H](C)CNC(=O)c1cc(-c2cnn3ccc(-c4cccs4)nc23)nc(N2CC(CO)C2)c1` [Example 216, (S)—N-(2-(diethylamino)propyl)-2-(3-(hydroxymethyl)azetidin-1-yl)-6-(5-(thiophen-2-yl)pyrazolo[1,5-a]pyrimidin-3-yl)isonicotinamide], the IC50 was found to be 0.1 nM. With `CCN(CC)[C@@H](C)CNC(=O)c1cc(-c2cnn3ccc(-c4cccs4)nc23)nc(N2CC(O)(C3CC3)C2)c1` [Example 217, (S)-2-(3-cyclopropyl-3-hydroxyazetidin-1-yl)-N-(2-(diethylamino)propyl)-6-(5-(thiophen-2-yl)pyrazolo[1,5-a]pyrimidin-3-yl)isonicotinamide], the IC50 stood at 0.18 nM. Next, `CCN(CC)[C@@H](C)CNC(=O)c1cc(NCCCOC)nc(-c2cnn3ccc(-c4cccs4)nc23)c1` [Example 218, (S)—N-(2-(diethylamino)propyl)-2-((3-methoxypropyl)amino)-6-(5-(thiophen-2-yl)pyrazolo[1,5-a]pyrimidin-3-yl)isonicotinamide]: 0.17 nM; `CCN(CC)[C@@H](C)CNC(=O)c1cc(-c2cnn3ccc(-c4cccs4)nc23)nc(N2CC(O)(C(F)(F)F)C2)c1` [Example 219, (S)—N-(2-(diethylamino)propyl)-2-(3-hydroxy-3-(trifluoromethyl)azetidin-1-yl)-6-(5-(thiophen-2 yl)pyrazolo[1,5-a]pyrimidin-3-yl)isonicotinamide]: 0.21 nM; `CCN(CC)[C@@H](C)CNC(=O)c1cc(NCCCO)nc(-c2cnn3ccc(-c4cccs4)nc23)c1` [Example 220, (S)—N-(2-(diethylamino)propyl)-2-((3-hydroxypropyl)amino)-6-(5-(thiophen-2-yl)pyrazolo[1,5-a]pyrimidin-3-yl)isonicotinamide]: 0.11 nM.

As to `CCN(CC)[C@@H](C)CNC(=O)c1cc(NCCC(C)(C)O)nc(-c2cnn3ccc(-c4cccs4)nc23)c1` [Example 221, (S)—N-(2-(diethylamino)propyl)-2-((3-hydroxy-3-methylbutyl)amino)-6-(5-(thiophen-2-yl)pyrazolo[1,5-a]pyrimidin-3-yl)isonicotinamide], the IC50 came out at 0.13 nM.
